Data from article PMC9780857 (International Journal of Molecular Sciences, 2022).
Read-outs that look alike come from different tables or passages of the source.

Legend:
[1] = target: T1, hOCT2 (Homo sapiens, UniProt O15244); assay: Inhibition of hOCT2-mediated 14C-metformin uptake in transfected HEK293 cells; type: cell-based; set-up: expressed in transfected cells; host or cells: HEK293 (stably transfected)
T1 sequence (O15244 1-555): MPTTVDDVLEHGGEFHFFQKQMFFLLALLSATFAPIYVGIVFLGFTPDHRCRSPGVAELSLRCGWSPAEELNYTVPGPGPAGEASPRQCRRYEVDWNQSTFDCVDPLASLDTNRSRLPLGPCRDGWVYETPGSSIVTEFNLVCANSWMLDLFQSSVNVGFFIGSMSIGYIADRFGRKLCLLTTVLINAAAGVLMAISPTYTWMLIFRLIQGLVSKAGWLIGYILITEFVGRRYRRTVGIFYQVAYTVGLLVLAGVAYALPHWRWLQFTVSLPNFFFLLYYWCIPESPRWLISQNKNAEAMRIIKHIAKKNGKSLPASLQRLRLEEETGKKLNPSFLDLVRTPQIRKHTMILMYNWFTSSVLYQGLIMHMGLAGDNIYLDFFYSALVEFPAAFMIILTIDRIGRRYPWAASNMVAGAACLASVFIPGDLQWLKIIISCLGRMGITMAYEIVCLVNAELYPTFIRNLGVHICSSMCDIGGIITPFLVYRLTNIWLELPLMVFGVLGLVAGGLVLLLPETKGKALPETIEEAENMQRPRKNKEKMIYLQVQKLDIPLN
Protocol: (§1) The uptake assays were performed as previously described in 24-well plates. […] After incubation, the uptake was stopped by aspirating the reaction mixture and washing the cells three times with 0.4 mL ice-cold PBS buffer. Cells were then solubilized with 0.6 mL of 1 N NaOH, overnight. The whole content of each well (0.6 mL) was transferred to a scintillation vial (Perkin Elmer). The radio-labelled amount was determined by liquid scintillation counting.
(§2) All inhibition experiments were conducted on at least two separate days in triplicate.
(§3) For screening experiments, cis-inhibition was carried out in duplicate by measuring the uptake of the labeled probe substrate in the absence and presence of 10 µM or 100 µM of the respective pesticide or drug. […] Inhibitory effects in percent were calculated from net-uptake. […]

[2] = target: T2, mOct2 (Mus musculus, UniProt O70577); assay: Inhibition of mOct2-mediated 14C-metformin uptake in transfected HEK293 cells; type: cell-based; set-up: expressed in transfected cells; host or cells: HEK293 (stably transfected)
T2 sequence (O70577 1-553): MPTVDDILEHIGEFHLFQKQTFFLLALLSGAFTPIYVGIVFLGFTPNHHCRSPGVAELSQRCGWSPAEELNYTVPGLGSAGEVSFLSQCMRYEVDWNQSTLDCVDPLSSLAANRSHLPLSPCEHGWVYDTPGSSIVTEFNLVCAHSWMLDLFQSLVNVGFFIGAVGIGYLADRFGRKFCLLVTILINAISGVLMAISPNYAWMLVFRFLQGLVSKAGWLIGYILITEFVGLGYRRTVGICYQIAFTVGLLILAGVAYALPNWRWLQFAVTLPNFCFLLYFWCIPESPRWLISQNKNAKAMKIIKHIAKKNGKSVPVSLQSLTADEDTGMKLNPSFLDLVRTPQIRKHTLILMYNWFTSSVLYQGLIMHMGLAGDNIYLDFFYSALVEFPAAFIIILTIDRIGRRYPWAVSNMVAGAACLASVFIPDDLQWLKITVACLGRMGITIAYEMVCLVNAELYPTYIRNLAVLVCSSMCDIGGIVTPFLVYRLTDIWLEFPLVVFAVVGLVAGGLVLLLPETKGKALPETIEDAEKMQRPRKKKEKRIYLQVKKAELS
Protocol: as §1, §2, §3

[3] = target: T1, hOCT2; assay: Inhibition of hOCT2-mediated 3H-MPP uptake in transfected HEK293 cells; type: cell-based; set-up: expressed in transfected cells; host or cells: HEK293 (stably transfected)
Protocol: (§4) With cDNA of hOCT2 (GeneBank: accession number: NM_003058.3) or mOct2 (NM_013667.2), stably overexpressing HEK293 cells were used for the experiments and empty vector-transfected HEK cells were used as control-HEK cells.
(§5) The uptake assays were performed as previously described in 24-well plates. Therefore, culture medium was aspirated, and each well was rinsed three times with 0.5 mL incubation buffer (HBSS supplemented with 20 mM HEPES, pH 7.4) and then incubated in 200 µL dosing solution containing ^3H-MPP or ^14C-metformin and the test compound. After incubation, the uptake was stopped by aspirating the reaction mixture and washing the cells three times with 0.4 mL ice-cold PBS buffer. Cells were then solubilized with 0.6 mL of 1 N NaOH, overnight. The whole content of each well (0.6 mL) was transferred to a scintillation vial (Perkin Elmer). The radio-labelled amount was determined by liquid scintillation counting.
(§6) […]. All inhibition experiments were conducted on at least two separate days in triplicate.
(§7) The Km and Vmax values were obtained using SigmaPlot version 13 by fitting the Michaelis–Menten equation V = Vmax*[S]/(Km + [S]), where V refers to the rate of substrate transport, Vmax refers to the maximum rate of substrate transport, [S] refers to the concentration of substrate, and Km is defined as the concentration of substrate at the half-maximal transport rate.

[4] = target: T2, mOct2; assay: Inhibition of mOct2-mediated 3H-MPP uptake in transfected HEK293 cells; type: cell-based; set-up: expressed in transfected cells; host or cells: HEK293 (stably transfected)
Protocol: as §4, §5, §6, §7

[5] = substrate: C[n+]1ccc(-c2ccccc2)cc1; assay: cells, lysate or membranes; settings: other: substrate, metformin 2 min, MPP 1 min, 37 °C, pH 7.4
[6] = HEK293, read-out: Inhibitory Effects (%) hOCT2 10 µM Mean
[7] = HEK293, read-out: Inhibitory Effects (%) hOCT2 100 µM Mean
[8] = HEK293, read-out: Inhibitory Effects (%) mOct2 10 µM Mean
[9] = HEK293, read-out: Inhibitory Effects (%) mOct2 100 µM Mean
[10] = 10 µM test compound; 1 µM [14C]metformin, 2 min, HEK293; negative = stimulation
[11] = 100 µM test compound; 1 µM [14C]metformin, 2 min, HEK293; negative = stimulation
[12] = HEK293, 10 µM test compound; 1 µM [14C]metformin, 2 min, HEK293; negative = stimulation; read-out: Inhibitory Effects (%) hOCT2 10 µM Mean
[13] = HEK293, 100 µM test compound; 1 µM [14C]metformin, 2 min, HEK293; negative = stimulation; read-out: Inhibitory Effects (%) hOCT2 100 µM Mean
[14] = HEK293, 10 µM test compound; 1 µM [14C]metformin, 2 min, HEK293; negative = stimulation; read-out: Inhibitory Effects (%) mOct2 10 µM Mean
[15] = HEK293, 100 µM test compound; 1 µM [14C]metformin, 2 min, HEK293; negative = stimulation; read-out: Inhibitory Effects (%) mOct2 100 µM Mean
[16] = HEK293; read-out: Inhibitory Effects (%) mOct2 10 µM Mean
[17] = HEK293; read-out: Inhibitory Effects (%) mOct2 100 µM Mean
[18] = HEK293; read-out: Inhibitory Effects (%) hOCT2 10 µM Mean
[19] = HEK293; read-out: Inhibitory Effects (%) hOCT2 100 µM Mean

O=[N+]([O-])NC1=NCCN1Cc1ccc(Cl)nc1 [Imidacloprid]
inhibition at 10 µM [1, 6]: -74% | inhibition at 100 µM [1, 7]: -43% | inhibition at 10 µM [2, 8]: -52% | inhibition at 100 µM [2, 9]: -29%

CO/C=C(/C(=O)OC)c1ccccc1Oc1cc(Oc2ccccc2C#N)ncn1 [Azoxystrobin]
Inhibitory Effects (%) hOCT2 10 µM Mean [1, 10]: −40% | Inhibitory Effects (%) hOCT2 100 µM Mean [1, 11]: −14% | Inhibitory Effects (%) mOct2 10 µM Mean [2, 10]: −6% | Inhibitory Effects (%) mOct2 100 µM Mean [2, 11]: −17%

O=C(O)CNCP(=O)(O)O [Glyphosat]
inhibition at 10 µM [1, 6]: -24% | inhibition at 100 µM [1, 7]: -48% | inhibition at 10 µM [2, 8]: -13% | inhibition at 100 µM [2, 9]: -31%

C=CCOC(Cn1ccnc1)c1ccc(Cl)cc1Cl (centres unmarked) [Imazalil]
IC50 [1]: 4.7 µM | inhibition at 10 µM [1, 6]: 52% | inhibition at 100 µM [1, 7]: 93% | IC50 [2]: 580 nM | inhibition at 10 µM [2, 8]: 83% | inhibition at 100 µM [2, 9]: 97% | Fold higher inhibitory potency to mouse than to human OCT2 (IC50 ratio) ([2]; metformin as substrate): 8 fold | IC50 [3]: 51 ± 16 µM | Fold higher IC50 for hOCT2 than for mOct2 ([3]; MPP as substrate): 2 fold | IC50 [4]: 23 ± 6 µM

COc1ccc(CCN(C)CCCC(C#N)(c2ccc(OC)c(OC)c2)C(C)C)cc1OC (centres unmarked) [Verapamil]
inhibition at 10 µM [1, 6]: -8% | inhibition at 100 µM [1, 7]: 44% | inhibition at 10 µM [2, 8]: 23% | inhibition at 100 µM [2, 9]: 73%

CCCCc1oc2ccccc2c1C(=O)c1cc(I)c(OCCN(CC)CC)c(I)c1 [Amiodarone]
inhibition at 10 µM [1, 12]: -10% | inhibition at 100 µM [1, 13]: -27% | inhibition at 10 µM [2, 14]: -7% | inhibition at 100 µM [2, 15]: 4%

COC(=O)[C@H]1[C@H]2C[C@@H]3c4[nH]c5cc(OC)ccc5c4CCN3C[C@H]2C[C@@H](OC(=O)c2cc(OC)c(OC)c(OC)c2)[C@@H]1OC [Reserpine]
inhibition at 10 µM [1, 12]: -13% | inhibition at 100 µM [1, 13]: -27% | inhibition at 10 µM [2, 16]: -27% | inhibition at 100 µM [2, 17]: -19%

CCCOC(=O)NCCCN(C)C [Propamocarb]
Inhibitory Effects (%) hOCT2 10 µM Mean [1, 10]: negligible | inhibition at 10 µM [1, 18]: 1% | inhibition at 100 µM [1, 19]: 55% | Inhibitory Effects (%) mOct2 10 µM Mean [2, 10]: negligible | inhibition at 10 µM [2, 16]: -9% | inhibition at 100 µM [2, 17]: 48%

CN/C(=N/CCSCc1nc[nH]c1C)NC#N [Cimetidine]
inhibition at 10 µM [1, 12]: -50% | inhibition at 100 µM [1, 13]: -17% | inhibition at 10 µM [2, 14]: -42% | inhibition at 100 µM [2, 15]: 24%

O[C@@H](COc1cccc2ncccc12)CN1CCN([C@@H]2c3ccccc3[C@@H]3[C@H](c4ccccc42)C3(F)F)CC1 [Zosuquidar]
inhibition at 10 µM [1, 12]: -10% | inhibition at 100 µM [1, 13]: -47% | inhibition at 10 µM [2, 14]: -11% | inhibition at 100 µM [2, 15]: -30%

Cc1ccc(/N=C/N(C)/C=N/c2ccc(C)cc2C)c(C)c1 [Amitraz]
inhibition at 10 µM [1, 6]: -98% | inhibition at 100 µM [1, 7]: -96% | inhibition at 10 µM [2, 8]: -33% | inhibition at 100 µM [2, 9]: -12%

CCNc1nc(Cl)nc(NC(C)C)n1 [Atrazin]
inhibition at 10 µM [1, 6]: -57% | inhibition at 100 µM [1, 7]: -53% | inhibition at 10 µM [2, 8]: -44% | inhibition at 100 µM [2, 9]: -27%

CCCN(CCOc1c(Cl)cc(Cl)cc1Cl)C(=O)n1ccnc1 [Prochloraz]
inhibition at 10 µM [1, 6]: -43% | inhibition at 100 µM [1, 7]: -17% | inhibition at 10 µM [2, 8]: -13% | inhibition at 100 µM [2, 9]: 10%

C=C[C@H]1C[N@@]2CC[C@H]1C[C@@H]2[C@@H](O)c1ccnc2ccc(OC)cc12 [Quinidine]
inhibition at 10 µM [1, 18]: -50% | inhibition at 100 µM [1, 19]: -31% | inhibition at 10 µM [2, 14]: -38% | inhibition at 100 µM [2, 15]: -28%

B1: hOCT2 (Homo sapiens) (protein)
chain: MPTTVDDVLEHGGEFHFFQKQMFFLLALLSATFAPIYVGIVFLGFTPDHRCRSPGVAELSLRCGWSPAEELNYTVPGPGPAGEASPRQCRRYEVDWNQSTFDCVDPLASLDTNRSRLPLGPCRDGWVYETPGSSIVTEFNLVCANSWMLDLFQSSVNVGFFIGSMSIGYIADRFGRKLCLLTTVLINAAAGVLMAISPTYTWMLIFRLIQGLVSKAGWLIGYILITEFVGRRYRRTVGIFYQVAYTVGLLVLAGVAYALPHWRWLQFTVSLPNFFFLLYYWCIPESPRWLISQNKNAEAMRIIKHIAKKNGKSLPASLQRLRLEEETGKKLNPSFLDLVRTPQIRKHTMILMYNWFTSSVLYQGLIMHMGLAGDNIYLDFFYSALVEFPAAFMIILTIDRIGRRYPWAASNMVAGAACLASVFIPGDLQWLKIIISCLGRMGITMAYEIVCLVNAELYPTFIRNLGVHICSSMCDIGGIITPFLVYRLTNIWLELPLMVFGVLGLVAGGLVLLLPETKGKALPETIEEAENMQRPRKNKEKMIYLQVQKLDIPLN
Km [5]: 62 µM
